From patent US8183272B2, “Indanyl compounds” (Daiichi Sankyo Company, Limited, priority 2008, dated 2012)

How the values were obtained:
PTH secretion = test: Evaluation of PTH secretion promoting activity in rat (blood serum PTH, ELISA); format: in vivo; conditions: female F344 rat, oral 3 mg/5 mL/kg, Means ± S.D., n = 3; for Blood Serum PTH (1-84) Concentration, 0 minute: before administration
Procedure: Evaluation of PTH Secretion Promoting Activity in Rat
A 10 to 14-week old female F344 rat (Charles River Japan, Inc.) fasted overnight was anesthetized using ether, and blood serum before the administration was prepared by drawing blood from the jugular vein of the animal. Subsequently, the test compound was orally administered at a dose of 3 mg/5 mL/kg using a solvent (0.5% aqueous methyl cellulose solution containing 5% DMA). Blood was drawn from the jugular vein under ether anesthesia at 5, 15, 30, 60, 120, and 240 minutes after the administration of the test compound, and the blood serum was prepared. The blood serum PTH concentration was measured using rat Intact PTH ELISA kit (manufactured by Immutopics, Inc.).

[1] = target: T1, human calcium-sensing receptor (CaSR) (Homo sapiens, UniProt P41180); test: Inhibitory activity on calcium-sensing receptor (CaSR) using intracellular calcium increase as an indicator (FLIPR, CHO/hCaSR); format: cell-based; conditions: CHO/hCaSR cells; intracellular Ca increase induced by CaCl2; test compound 1.05 to 10,000 nM
T1 construct: expressed in transfected cells; host or cells: CHO cells (CHO/hCaSR)
T1 sequence (P41180 20-1078): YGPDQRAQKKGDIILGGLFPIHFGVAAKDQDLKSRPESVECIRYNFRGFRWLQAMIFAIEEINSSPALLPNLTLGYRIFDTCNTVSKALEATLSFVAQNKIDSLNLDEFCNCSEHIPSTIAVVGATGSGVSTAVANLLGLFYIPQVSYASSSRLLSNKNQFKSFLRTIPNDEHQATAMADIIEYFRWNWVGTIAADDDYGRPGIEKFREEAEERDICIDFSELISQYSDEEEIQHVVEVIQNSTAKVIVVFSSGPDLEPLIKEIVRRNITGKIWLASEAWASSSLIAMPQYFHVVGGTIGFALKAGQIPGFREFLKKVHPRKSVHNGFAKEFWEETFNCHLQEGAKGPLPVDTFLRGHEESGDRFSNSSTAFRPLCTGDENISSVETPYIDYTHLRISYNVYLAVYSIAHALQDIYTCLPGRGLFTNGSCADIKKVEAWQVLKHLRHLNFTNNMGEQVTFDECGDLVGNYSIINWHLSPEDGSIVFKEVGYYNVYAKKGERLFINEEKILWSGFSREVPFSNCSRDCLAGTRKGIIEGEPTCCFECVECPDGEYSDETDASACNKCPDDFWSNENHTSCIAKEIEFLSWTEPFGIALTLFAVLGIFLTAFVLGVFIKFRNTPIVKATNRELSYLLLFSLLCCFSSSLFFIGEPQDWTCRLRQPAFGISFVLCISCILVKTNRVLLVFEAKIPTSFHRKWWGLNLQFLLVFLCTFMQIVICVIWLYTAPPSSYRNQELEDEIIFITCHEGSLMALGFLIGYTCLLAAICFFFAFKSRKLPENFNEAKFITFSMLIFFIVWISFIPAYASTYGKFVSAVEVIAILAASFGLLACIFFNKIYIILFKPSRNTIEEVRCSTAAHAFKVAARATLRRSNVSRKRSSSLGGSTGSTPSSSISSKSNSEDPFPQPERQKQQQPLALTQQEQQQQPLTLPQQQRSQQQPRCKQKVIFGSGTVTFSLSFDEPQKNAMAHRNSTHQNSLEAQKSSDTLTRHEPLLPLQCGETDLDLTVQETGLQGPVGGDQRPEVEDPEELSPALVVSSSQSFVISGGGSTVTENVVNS
Procedure: Evaluation of inhibitory activity on calcium-sensing receptor (CaSR) using intracellular calcium increase as an indicator
The preparation which is prepared by adding CHO/hCaSR to F12 medium (manufactured by Invitrogen) containing 10% fetal bovine serum to have 2×10^5 cells/mL was applied to a 384-well in an amount of 50 μL/well, and then incubated overnight in a CO2 incubator. The culture supernatant was completely removed, the assay buffer (20 mM HEPES, HBSS (Ca and Mg free) containing 2.5 mM probenecid, pH 7.4) containing Calcium 3 (manufactured by Molecular Devices), i.e., a fluorescent intracellular calcium indicator, was added thereto in an amount of 25 μL/well, and the mixture was maintained for 1 hour in a CO2 incubator. Meanwhile, Calcium 3 was prepared according to the protocol enclosed in FLIPR Calcium 3 Assay Kit (manufactured by Molecular Devices). After maintaining it for 1 hour, a solution in which the test compound is prepared to have 2.1 to 20,000 nM (final concentration of 1.05 to 10,000 nM) by an assay buffer was added thereto in an amount of 25 μL/well, and maintained for 15 minutes in a CO2 incubator. Then, the CaCl2 solution prepared to have […] by using the assay buffer was added in an amount of 25 μL/well, and the resulting intracellular Ca increase (i.e., fluorescence intensity) was measured over time using a fluorescence imaging plate reader (FLIPR, manufactured by Molecular Devices). From the data obtained, the difference between the fluorescence intensity before the addition of CaCl2 solution and the maximum fluorescence intensity after the addition of CaCl2 solution was calculated, and the 50% inhibition concentration (IC50) of the test compound was obtained.

| Compound | Blood Serum PTH (1-84) Concentration, After 5 minutes (PTH secretion) [pg/mL] | Blood Serum PTH (1-84) Concentration, After 15 minutes (PTH secretion) [pg/mL] | Blood Serum PTH (1-84) Concentration, After 30 minutes (PTH secretion) [pg/mL] | Blood Serum PTH (1-84) Concentration, After 60 minutes (PTH secretion) [pg/mL] | Blood Serum PTH (1-84) Concentration, After 120 minutes (PTH secretion) [pg/mL] | Blood Serum PTH (1-84) Concentration, After 240 minutes (PTH secretion) [pg/mL] | Blood Serum PTH (1-84) Concentration, 0 minute (PTH secretion) [pg/mL] | IC50 [1] [nM] |
| --- | --- | --- | --- | --- | --- | --- | --- | --- |
| C[C@@H](OC[C@H](O)CNC1(CC2Cc3ccccc3C2)CC1)c1ccccc1CCC(=O)O [Example 14, 3-{2-[(1R)-1-{[(2R)-3-{[1-(2,3-Dihydro-1H-inden-2-ylmethyl)cyclopropyl]amino}-2-hydroxypropyl]oxy}ethyl]phenyl}propanoic acid] | 211.6 ± 28.4 | 471.7 ± 112.8 | 146.1 ± 45.2 | 78.9 ± 5.0 | 81.8 ± 4.9 | 94.3 ± 15.7 | 62.8 ± 11.4 | ≤ 2510 |
| Cc1cccc([C@@H](C)OC[C@H](O)CNC(C)(C)CC2Cc3ccccc3C2)c1CCC(=O)O [Example 4, 3-{2-[(1R)-1-{[(2R)-3-{[1-(2,3-Dihydro-1H-inden-2-yl)-2-methylpropan-2-yl]amino}-2-hydroxypropyl]oxy}ethyl]-6-methylphenyl}propanoic acid] | 68.2 ± 6.0 | 489.1 ± 106.0 | 538.6 ± 155.1 | 117.0 ± 33.7 | 108.8 ± 27.4 | 91.9 ± 24.5 | 20.5 ± 6.6 |  |
